Measurements reported in US8653050B2, “Phenyl bicyclic methyl amine derivatives as sphingosine-1 phosphate receptors modulators” (Allergan, Inc., priority 2011, dated 2014).

Legend:
human S1P1 receptor = target: T1, human S1P1 receptor (Homo sapiens, UniProt P21453); experiment: GTP γ35S binding assay for S1P1 activity; assay type: biochemical; conditions: membranes of cells stably expressing S1P1 receptor
T1 construct: expressed in transfected cells; membranes used
Experimental: Compounds were synthesized and tested for S1P1 activity using the GTP γ^35S binding assay. These compounds may be assessed for their ability to activate or block activation of the human S1P1 receptor in cells stably expressing the S1P1 receptor.
GTP γ^35S binding was measured in the medium containing (mM) HEPES 25, pH 7.4, MgCl2 10, NaCl 100, dithitothreitol 0.5, digitonin 0.003%, 0.2 nM GTP γ^35S, and 5 μg membrane protein in a volume of 150 μl. Test compounds were included in the concentration range from 0.08 to 5,000 nM unless indicated otherwise. Membranes were incubated with 100 μM 5′-adenylylimmidodiphosphate for 30 min, and subsequently with 10 μM GDP for 10 min on ice. Drug solutions and membrane were mixed, and then reactions were initiated by adding GTP γ^35S and continued for 30 min at 25° C. Reaction mixtures were filtered over Whatman GF/B filters under vacuum, and washed three times with 3 mL of ice-cold buffer (HEPES 25, pH7.4, MgCl2 10 and NaCl 100). Filters were dried and mixed with scintillant, and counted for ^35S activity using a β-counter. Agonist-induced GTP γ^35S binding was obtained by subtracting that in the absence of agonist. Binding data were analyzed using a non-linear regression method. In case of antagonist assay, the reaction mixture contained 10 nM […] in the presence of test antagonist at concentrations ranging from 0.08 to 5000 nM.

female C57BL6 mice = experiment: Lymphopenia assay in mice (in vivo blood lymphocyte depletion); conditions: subcutaneous, 10 mg/Kg or 2 mg/Kg, 24 hours after dosing, FIG. 1 / FIG. 2
Experimental: Test drugs are prepared in a solution containing 3% (w/v) 2-hydroxy propyl R-cyclodextrin (HPBCD) and 1% DMSO to a final concentration of 1 mg/ml, and subcutaneously injected to female C57BL6 mice (CHARLES RIVERS) weighing 20-25 g at the dose of 10 mg/Kg. Blood samples are obtained by puncturing the submandibular skin with a Goldenrod animal lancet at 5, 24, 48, 72, and 96 hrs post drug application. Blood is collected into microvettes (SARSTEDT) containing EDTA tripotassium salt. Lymphocytes in blood samples are counted using a HEMAVET Multispecies Hematology System, HEMAVET HV950FS (Drew Scientific Inc.). (Hale, J. et al Bioorg. & Med. Chem. Lett. 14 (2004) 3351).
A lymphopenia assay in mice, as previously described, was employed to measure the in vivo blood lymphocyte depletion after dosing Compounds 9, 10, 11 and 14, (FIG. 1) and Compounds 15, 17, 18 and 20, (FIG. 2). These S1P agonists (or modulators) are useful for S1P-related diseases, and exemplified by the lymphopenia in vivo response. In general, test compounds were prepared in a solution containing 3% (w/v) 2-hydroxy propyl β-cyclodextrin (HPBCD) and 1% DMSO to a final concentration of 1 mg/ml, and subcutaneously injected to female C57BL6 mice (CHARLES RIVERS) weighing 20-25 g at the dose of 10 mg/Kg or 2 mg/Kg. Blood samples were obtained by puncturing the submandibular skin with a Goldenrod animal lancet at 24, 48, 72 and 96 hrs post drug application. Blood was collected into microvettes (SARSTEDT) containing EDTA tripotassium salt. Lymphocytes in blood samples were counted using a HEMAVET Multispecies Hematology System, HEMAVET HV950FS (Drew Scientific Inc.).

T1 sequence (P21453 whole entry): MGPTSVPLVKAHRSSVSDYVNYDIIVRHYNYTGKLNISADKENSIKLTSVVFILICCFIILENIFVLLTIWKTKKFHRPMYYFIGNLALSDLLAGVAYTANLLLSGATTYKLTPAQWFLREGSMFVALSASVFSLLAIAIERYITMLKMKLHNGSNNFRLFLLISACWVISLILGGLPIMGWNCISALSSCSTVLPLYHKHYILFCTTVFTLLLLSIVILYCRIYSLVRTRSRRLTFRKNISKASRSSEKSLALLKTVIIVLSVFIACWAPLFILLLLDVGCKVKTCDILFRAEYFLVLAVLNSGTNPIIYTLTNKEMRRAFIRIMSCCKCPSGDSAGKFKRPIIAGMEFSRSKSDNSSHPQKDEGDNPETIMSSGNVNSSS

Compound | EC50 (human S1P1 receptor) | lymphocyte count after 24 hours (female C57BL6 mice)
CCCCCCc1ccc(-c2ccc(CNCCCP(=O)(O)O)c3ncccc23)cc1F [Compound 13, [3-({[5-(3-fluoro-4-hexylphenyl)quinolin-8-yl]methyl}amino)propyl]phosphonic acid] | 1.3 nM | 
O=P(O)(O)CCCNCc1ccc(-c2ccc(CCC3CCCCC3)cc2)c2cccnc12 [Compound 14, {3-[({5-[4-(2-cyclohexylethyl)phenyl]quinolin-8-yl}methyl)amino]propyl}phosphonic acid] | 1.5 nM | lowered lymphocyte count
CCCCCCc1ccc(-c2ccc(CNCCC(=O)O)c3ncccc23)cc1 [Compound 7, 3-({[5-(4-hexylphenyl)quinolin-8-yl]methyl}amino)propanoic acid] | 872 nM | 
Cc1ccccc1CCCc1ccc(-c2ccc(CNCCCP(=O)(O)O)c3ncccc23)cc1 [Compound 8, (3-{[(5-{4-[3-(2-methylphenyl)propyl]phenyl}quinolin-8-yl)methyl]amino}propyl)phosphonic acid] | 3.8 nM | 
CCCCC(CC)CCc1ccc(-c2ccc(CNCCCP(=O)(O)O)c3ncccc23)cc1 (centres unmarked) [Compound 11, {3-[({5-[4-(3-ethylheptyl)phenyl]quinolin-8-yl}methyl)amino]propyl}phosphonic acid] | 6.97 nM | lowered lymphocyte count
CCCCC(CC)CCc1ccc(-c2ccc(CNCCOP(=O)(O)O)c3ncccc23)cc1F (centres unmarked) [Compound 23, 2-[({5-[4-(3-ethylheptyl)-3-fluorophenyl]quinolin-8-yl}methyl)amino]ethyl dihydrogen phosphate] | 2.63 nM | 
Cc1ccc(CCCc2ccc(-c3ccc(CNCCCP(=O)(O)O)c4ncccc34)cc2F)cc1 [Compound 18, (3-{[(5-{3-fluoro-4-[3-(4-methylphenyl)propyl]phenyl}quinolin-8-yl)methyl]amino}propyl)phosphonic acid] | 1 nM | lowered lymphocyte count
CCCCCCc1ccc(-c2ccc(CNCCOP(=O)(O)O)c3ncccc23)cc1 [Compound 5, 2-({[5-(4-hexylphenyl)quinolin-8-yl]methyl}amino)ethyl dihydrogen phosphate] | 31.1 nM | 
CCCCCCc1ccc(-c2ccc(CNCCCP(=O)(O)O)c3ccccc23)cc1 [Compound 3, [3-({[4-(4-hexylphenyl)-1-naphthyl]methyl}amino)propyl]phosphonic acid] | 54.2 nM | 
O=P(O)(O)CCCNCc1ccc(-c2ccc(CCCc3ccccc3)cc2)c2cccnc12 [Compound 6, {3-[({5-[4-(3-phenylpropyl)phenyl]quinolin-8-yl}methyl)amino]propyl}phosphonic acid] | 8.3 nM | 
CCCCC(CC)CCc1ccc(-c2ccc(CNCCO)c3ncccc23)cc1F (centres unmarked) [Compound 22, 2-[({5-[4-(3-ethylheptyl)-3-fluorophenyl]quinolin-8-yl}methyl)amino]ethanol] | 137 nM | 
Cc1ccccc1CCCc1ccc(-c2ccc(CNCCCP(=O)(O)O)c3ncccc23)cc1F [Compound 16, (3-{[(5-{3-fluoro-4-[3-(2-methylphenyl)propyl]phenyl}quinolin-8-yl)methyl]amino}propyl)phosphonic acid] | 1 nM | 
Cc1cccc(CCCc2ccc(-c3ccc(CNCCCP(=O)(O)O)c4ncccc34)cc2F)c1 [Compound 17, (3-{[(5-{3-fluoro-4-[3-(3-methylphenyl)propyl]phenyl}quinolin-8-yl)methyl]amino}propyl)phosphonic acid] | 0.3 nM | lowered lymphocyte count
CCCCC(CC)CCc1ccc(-c2ccc(CNCCCP(=O)(O)O)c3ncccc23)cc1F (centres unmarked) [Compound 19, {3-[({5-[4-(3-ethylheptyl)-3-fluorophenyl]quinolin-8-yl}methyl)amino]propyl}phosphonic acid] | 2.5 nM | 
CCCCCCCc1ccc(-c2ccc(CNCCCP(=O)(O)O)c3ncccc23)cc1F [Compound 10, [3-({[5-(3-fluoro-4-heptylphenyl)quinolin-8-yl]methyl}amino)propyl]phosphonic acid] | 223 nM | lowered lymphocyte count
CCCCCCCCc1ccc(-c2ccc(CNCCCP(=O)(O)O)c3ncccc23)cc1 [Compound 12, [3-({[5-(4-octylphenyl)quinolin-8-yl]methyl}amino)propyl]phosphonic acid] | 11.2 nM | 
CCCCCCc1ccc(-c2ccc(CNCCCP(=O)(O)O)c3ncccc23)cc1 [Compound 4, [3-({[5-(4-hexylphenyl)quinolin-8-yl]methyl}amino)propyl]phosphonic acid] | 0.6 nM | 
CCCCCCCc1ccc(-c2ccc(CNCCCP(=O)(O)O)c3ncccc23)c(F)c1 [Compound 9, [3-({[5-(2-fluoro-4-heptylphenyl)quinolin-8-yl]methyl}amino)propyl]phosphonic acid] | 13.6 nM | lowered lymphocyte count
O=P(O)(O)CCCNCc1ccc(-c2ccc(CCCc3ccccc3)c(F)c2)c2cccnc12 [Compound 2, {3-[({5-[3-fluoro-4-(3-phenylpropyl)phenyl]quinolin-8-yl}methyl)amino]propyl}phosphonic acid] | 5.95 nM | 
CCCCCCc1ccc(-c2ccc(CNCCO)c3ncccc23)cc1 [Compound 15, 2-({[5-(4-hexylphenyl)quinolin-8-yl]methyl}amino)ethanol] | 192 nM | lowered lymphocyte count
O=P(O)(O)CCCNCc1ccc(-c2ccc(CCC3CCCCC3)c(F)c2)c2cccnc12 [Compound 20, {3-[({5-[4-(2-cyclohexylethyl)-3-fluorophenyl]quinolin-8-yl}methyl)amino]propyl}phosphonic acid] | 1.68 nM | lowered lymphocyte count
